Reference: patent US20100075965A1, “PI3 KINASE INHIBITORS AND METHODS OF THEIR USE” (Novartis AG, priority 2006, published 2010)
Where two headings read alike, the source gives them in different places.

How the values were obtained:
PI3 K Alpha = PI3 K Alpha (Homo sapiens, UniProt P42336); assay: PI3 kinase phosphorylation assays (homogenous solution phase, one step solid phase, ATP depletion/KinaseGlo); type: biochemical
A2780 cells = assay: Viability assay in A2780 (Cell Titer Glo); type: cell-based, human; details: Homo sapiens
Procedure, shortened: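 A2780 cells (1,000/well, DMEM + 10% FBS) were exposed to 3-fold serial dilutions of compound for 72 hrs at 37° C, 5% CO2. Viable cells were read by Cell Titer Glo luminescence, in duplicate, and EC50 values were derived from the curves.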

[1] = tested on: pSer473-Akt in A2780 cells; assay: pSer473 Akt assay to monitor PI3K pathway in A2780 cells (MSD); type: cell-based; details: Homo sapiens
Protocol: In this method, an assay for measuring the PI3K-mediated pSer^473-Akt status after treatment with representative inhibitor compounds of the preferred embodiments is described.
A2780 cells were cultured in DMEM supplemented with 10% FBS, L-glutamine, sodium pyruvate, and antibiotics. Cells were plated in the same medium at a density of 15,000 cells per well into 96 well tissue culture plates, with outside wells vacant, and allowed to adhere overnight.
Test compounds supplied in DMSO were diluted further into DMSO at 500 times the desired final concentrations before dilution into culture media to 2 times the final concentrations. Equal volumes of 2× compounds in media were added to the cells in 96 well plates and incubated at 37° C. for one hour. The media and compounds were then removed, the plates chilled and cells lysed in a lysis buffer (150 mM NaCl, 20 mM Tris pH 7.5, 1 mM EDTA, 1 mM EGTA, 1% Triton X-100) supplemented with phosphatase and protease inhibitors. After thorough mixing, lysates were transferred to both pSer473Akt and total Akt assay plates from Meso Scale Discovery (MSD), and incubated overnight with shaking at 4° C. The plates were washed with 1×MSD wash buffer and the captured analytes detected with secondary antibodies. After incubation with the secondary antibody at room temperature for 1-2 hours, the plates were washed again and 1.5× concentration of Read Buffer T (MSD) was added to the wells.
The assays were read on a SECTOR Imager 6000 instrument (Meso Scale Discovery). Ratios of the signal from pSer473Akt and total Akt assays were used to correct for any variability and the percent inhibition of pSer473Akt from the total signal seen in cells treated with compound versus DMSO alone was calculated and used to determine EC50 values for each compound as shown in Tables 1 and 2 in the column labeled “A2780 pAKT473 EC50”.

[2] = A2780 cells, read-out: A2780 Cell prolif. EC50
[3] = A2780 cells, read-out: A2780 pAKT 473 EC50

Chain of PI3 K Alpha (P42336 whole entry): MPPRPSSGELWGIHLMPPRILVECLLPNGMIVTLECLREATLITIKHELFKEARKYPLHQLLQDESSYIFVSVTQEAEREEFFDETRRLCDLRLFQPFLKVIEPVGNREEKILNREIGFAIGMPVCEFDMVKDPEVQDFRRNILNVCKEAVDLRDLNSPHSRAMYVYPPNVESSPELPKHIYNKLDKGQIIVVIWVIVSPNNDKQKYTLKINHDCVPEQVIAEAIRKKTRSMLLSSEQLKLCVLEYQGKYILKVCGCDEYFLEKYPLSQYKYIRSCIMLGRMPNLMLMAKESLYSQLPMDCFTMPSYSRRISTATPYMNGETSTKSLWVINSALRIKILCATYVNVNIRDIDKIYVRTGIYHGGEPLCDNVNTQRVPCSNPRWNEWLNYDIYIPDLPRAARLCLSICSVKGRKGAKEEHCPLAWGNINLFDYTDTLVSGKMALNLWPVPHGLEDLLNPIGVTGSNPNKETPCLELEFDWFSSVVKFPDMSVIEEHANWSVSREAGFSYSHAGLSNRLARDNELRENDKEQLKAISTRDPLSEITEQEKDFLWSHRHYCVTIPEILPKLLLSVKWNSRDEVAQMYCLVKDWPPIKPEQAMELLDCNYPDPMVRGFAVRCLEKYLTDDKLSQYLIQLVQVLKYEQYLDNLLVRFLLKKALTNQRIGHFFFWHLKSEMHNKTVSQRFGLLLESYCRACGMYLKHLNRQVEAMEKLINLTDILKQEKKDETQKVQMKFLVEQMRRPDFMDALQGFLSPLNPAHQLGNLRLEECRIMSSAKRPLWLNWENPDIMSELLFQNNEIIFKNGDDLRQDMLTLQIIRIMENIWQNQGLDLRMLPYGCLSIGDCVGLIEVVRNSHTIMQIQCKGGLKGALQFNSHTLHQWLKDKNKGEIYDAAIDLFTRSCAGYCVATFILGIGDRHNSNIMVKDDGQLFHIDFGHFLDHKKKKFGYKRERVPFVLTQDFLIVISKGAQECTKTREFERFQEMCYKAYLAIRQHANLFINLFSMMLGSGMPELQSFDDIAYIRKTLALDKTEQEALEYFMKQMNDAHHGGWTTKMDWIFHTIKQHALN
Chain of PI3 K Alpha (P27986 whole entry partner): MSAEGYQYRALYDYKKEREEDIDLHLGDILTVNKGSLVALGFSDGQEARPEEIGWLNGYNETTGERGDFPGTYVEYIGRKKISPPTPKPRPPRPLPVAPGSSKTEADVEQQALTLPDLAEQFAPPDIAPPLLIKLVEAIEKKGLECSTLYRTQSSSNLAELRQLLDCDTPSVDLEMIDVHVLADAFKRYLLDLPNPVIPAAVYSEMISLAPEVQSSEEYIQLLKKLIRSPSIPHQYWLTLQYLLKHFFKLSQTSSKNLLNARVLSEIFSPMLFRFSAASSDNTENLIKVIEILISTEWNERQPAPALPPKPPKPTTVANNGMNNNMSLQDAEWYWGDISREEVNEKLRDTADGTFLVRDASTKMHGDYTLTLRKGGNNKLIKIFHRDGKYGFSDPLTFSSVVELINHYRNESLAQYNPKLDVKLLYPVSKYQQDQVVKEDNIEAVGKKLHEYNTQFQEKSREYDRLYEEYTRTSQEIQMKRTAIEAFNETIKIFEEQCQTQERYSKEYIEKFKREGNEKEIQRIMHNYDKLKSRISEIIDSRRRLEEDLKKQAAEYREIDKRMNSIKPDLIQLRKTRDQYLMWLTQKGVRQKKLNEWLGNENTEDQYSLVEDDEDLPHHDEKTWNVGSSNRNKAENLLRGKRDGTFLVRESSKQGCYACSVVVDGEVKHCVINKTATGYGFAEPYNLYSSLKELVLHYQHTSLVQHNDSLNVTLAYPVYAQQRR

IC50 (PI3 K Alpha; read-out: PI3K Alpha IC50) | EC50 (A2780 cells; [2]) | EC50 [1, 3] | Structure (SMILES) | IC50 (PI3 K Alpha) | EC50 (A2780 cells; A2780, read-out: A2780 Cell prolif. EC50) | EC50 ([1]; A2780, read-out: A2780 pAKT 473 EC50)
< 1000 nM | < 10000 nM | < 1000 nM | Nc1ncc(-c2ccc3nc(NC(=O)CCCN4CCOCC4)cn3c2)cc1C(F)(F)F [Example 26, N-[6-(6-Amino-5-trifluoromethyl-pyridin-3-yl)-imidazo[1,2-a]pyridin-2-yl]-4-morpholin-4-yl-butyramide] |  |  | 
< 1000 nM | < 10000 nM | < 1000 nM | Nc1ncc(-c2ccc3nc(NC(=O)CCCO)cn3c2)cc1C(F)(F)F [Example 27, N-[6-(6-Amino-5-trifluoromethyl-pyridin-3-yl)-imidazo[1,2-a]pyridin-2-yl]-4-hydroxy-butyramide] |  |  | 
< 1000 nM | < 25000 nM | < 1000 nM | CC(=O)Nc1cn2cc(-c3cnc(N)c(F)c3)ccc2n1 [Example 28, N-[6-(6-Amino-5-fluoro-pyridin-3-yl)-imidazo[1,2-a]pyridin-2-yl]-acetamide] |  |  | 
< 1000 nM | < 25000 nM | < 10000 nM | CC(=O)Nc1cn2cc(-c3cnc(N)cc3F)ccc2n1 [Example 29, N-[6-(6-Amino-4-fluoro-pyridin-3-yl)-imidazo[1,2-a]pyridin-2-yl]-acetamide] |  |  | 
< 1000 nM | < 10000 nM | < 1000 nM | CCN(CC)CC#Cc1c(NC(C)=O)nc2ccc(-c3cnc(N)c(C(F)(F)F)c3)cn12 [Example 30, N-[6-(6-Amino-5-trifluoromethyl-pyridin-3-yl)-3-(3-diethylamino-prop-1-ynyl)-imidazo[1,2-a]pyridin-2-yl]-acetamide] |  |  | 
< 1000 nM | < 1000 nM | < 1000 nM | CC(=O)Nc1nc2ccc(-c3cnc(N)c(C(F)(F)F)c3)cn2c1C#N [Example 32, N-[6-(6-Amino-5-trifluoromethyl-pyridin-3-yl)-3-cyano-imidazo[1,2-a]pyridin-2-yl]-acetamide] |  |  | 
> 25000 nM | < 10000 nM | < 25000 nM | COc1cc(-c2ccc3nc(NC(C)=O)cn3c2)c(C)nc1N [Example 33, N-(6-(6-amino-5-methoxy-2-methylpyridin-3-yl)imidazo[1,2-a]pyridin-2-yl)acetamide] |  |  | 
< 10000 nM | < 10000 nM | < 10000 nM | CC(=O)Nc1cn2cc(-c3cnc(N)c(-c4ccc(N5CCOCC5)cc4)c3)ccc2n1 [Example 39, N-(6-(6-amino-5-(4-morpholino-phenyl)pyridin-3-yl)imidazo[1,2-a]pyridin-2-yl)acetamide] |  |  | 
< 1000 nM | < 10000 nM | < 1000 nM | COc1ccc(CC(=O)Nc2cn3cc(-c4cnc(N)c(C(F)(F)F)c4)ccc3n2)cc1OC [Example 51] |  |  | 
< 1000 nM | < 1000 nM | < 1000 nM | CC(=O)Nc1cn2nc(-c3cnc(N)c(-c4ccccc4C(F)(F)F)c3)ccc2n1 [Example 53, N-(6-(6-amino-5-(2-(trifluoromethyl)phenyl)pyridin-3-yl)imidazo[1,2-b]pyridazin-2-yl)acetamide] |  |  | 
< 1000 nM | < 1000 nM | < 10000 nM | CC(=O)Nc1cn2cc(-c3cnc(N)c(/C=N/Nc4ccccc4)c3)ccc2n1 [Example 58, (E)-N-(6-(6-amino-5-((2-phenylhydrazono)methyl)pyridin-3-yl)imidazo[1,2-a]pyridin-2-yl)acetamide] |  |  | 
< 1000 nM | < 1000 nM | < 1000 nM | Nc1ncc(-c2ccc3nc(NC(=O)CCC4CCCCN4)cn3n2)cc1C(F)(F)F (stereo not drawn) [Example 59, N-(6-(6-amino-5-(trifluoromethyl)pyridin-3-yl)imidazo[1,2-b]pyridazin-2-yl)-3-(piperidin-2-yl)propanamide] |  |  | 
< 1000 nM | < 1000 nM | < 1000 nM | CNCC(=O)Nc1cn2nc(-c3cnc(N)c(C(F)(F)F)c3)ccc2n1 [Example 60, N-(6-(6-amino-5-(trifluoromethyl)pyridin-3-yl)imidazo[1,2-b]pyridazin-2-yl)-2-(methylamino) acetamide] |  |  | 
< 1000 nM | < 1000 nM | < 1000 nM | CC(=O)Nc1cn2cc(-c3cnc(N)c(Oc4ccc(F)cc4)n3)ccc2n1 [Example 63, N-(6-(5-amino-6-(4-fluorophenoxy)pyrazin-2-yl)imidazo[1,2-a]pyridin-2-yl)acetamide] |  |  | 
< 1000 nM | < 1000 nM | < 1000 nM | CC(=O)Nc1cn2cc(-c3cnc(N)c(Oc4cccc(F)c4)n3)ccc2n1 [Example 65, N-(6-(5-amino-6-(3-fluorophenoxy)pyrazin-2-yl)imidazo[1,2-a]pyridin-2-yl)acetamide] |  |  | 
< 1000 nM | < 1000 nM | < 1000 nM | CN(C)CCCC(=O)Nc1cn2nc(-c3cnc(N)c(C(F)(F)F)c3)ccc2n1 [Example 66, N-(6-(6-amino-5-(trifluoromethyl)pyridin-3-yl)imidazo[1,2-b]pyridazin-2-yl)-4-(dimethylamino) butanamide] |  |  | 
< 1000 nM | < 1000 nM | < 1000 nM | CC(=O)Nc1cn2cc(-c3cnc(N)c(OC4CN(C(=O)OC(C)(C)C)C4)n3)ccc2n1 [Example 67, tert-butyl 3-(6-(2-acetamido-imidazo[1,2-a]pyridin-6-yl)-3-aminopyrazin-2-yloxy)axetidine-1-carboxylate] |  |  | 
 |  |  | CC(=O)Nc1nc2ccc(-c3cnc(N)c(C(F)(F)F)c3)cn2c1C#Cc1ccncc1 [Example 68, N-(6-(6-amino-5-(trifluoromethyl)pyridin-3-4-ylethynyl)imi-dazo[1,2-a]pyridin-2-yl)acetamide] | < 1000 nM | < 1000 nM | < 1000 nM
< 1000 nM | < 1000 nM | < 1000 nM | Nc1ncc(-c2ccc3nc(NC(=O)CO[C@@H]4CCNC4)cn3n2)cc1C(F)(F)F [Example 69, (R)-N-(6-(6-amino-5-(trifluoromethyl)pyridin-3-yl)imidazo[1,2-b]pyridazin-2-yl)-2-(pyrrolidin-3-yloxy)acetamide] |  |  | 
< 1000 nM | < 1000 nM | < 1000 nM | Nc1ncc(-c2ccc3nc(NC(=O)CCCN4CCCCC4)cn3n2)cc1C(F)(F)F [Example 71, N-(6-(6-amino-5-(trifluoromethyl)pyridin-3-yl)imidazo[1,2-b]pyridazin-2-yl)-4-(piperidin-1-yl)butanamide] |  |  | 
< 1000 nM | < 1000 nM | < 1000 nM | CC(=O)Nc1cn2nc(-c3cnc(N)c(OC(F)F)c3)ccc2n1 [Example 72, N-(6-(6-amino-5-(difluoromethoxy)pyridin-3-yl)imidazo[1,2-b]pyridazin-2-yl)acetamide] |  |  | 
< 1000 nM | < 1000 nM | < 1000 nM | COCCCOc1nc(-c2ccc3nc(NC(C)=O)cn3c2)cnc1N [Example 73] |  |  | 
< 1000 nM | < 1000 nM | < 1000 nM | COCC(=O)Nc1cn2nc(-c3cnc(N)c(C(F)(F)F)c3)ccc2n1 [Example 74, n-(6-(6-amino-5-(trifluoromethyl)pyridin-3-yl)imidazo[1,2-b]pyridazin-2-yl)-2-methoxyacetamide] |  |  | 
< 1000 nM | < 1000 nM | < 1000 nM | CC(=O)Nc1cn2cc(-c3cnc(N)c(Oc4ccccc4)n3)ccc2n1 [Example 75, N-(6-(5-amino-6-phenoxypyrazin-2-yl)imidazo[1,2-a]pyridin-2-yl)acetamide] |  |  | 
< 1000 nM | < 1000 nM | < 1000 nM | CC(=O)Nc1cn2cc(-c3cnc(N)c(/C=N/NCC(F)(F)F)c3)ccc2n1 [Example 76, (E)-N-(6-(6-amino-5-((2-(2,2,2-trifluoroethyl) hydrazono)methyl)pyridin-3-yl)imidazo[1,2-a]pyridin-2-yl)acetamide] |  |  | 
< 1000 nM | < 1000 nM | < 1000 nM | NCC(=O)Nc1cn2nc(-c3cnc(N)c(C(F)(F)F)c3)ccc2n1 [Example 77, 2-amino-N-(6-(6-amino-5-(trifluoromethyl)pyridin-3-yl)imidazo[1,2-b]pyridazin-2-yl)acetamide] |  |  | 
< 1000 nM | < 1000 nM | < 1000 nM | Nc1ncc(-c2ccc3nc(NC(=O)c4ccc(F)cc4)cn3c2)cc1C(F)(F)F [Example 78, N-(6-(6-amino-5-(trifluoromethyl)pyridin-3-yl)imidazo[1,2-a]pyridin-2-yl)-4-fluorobenzamide] |  |  | 

Structure (SMILES) | IC50 (PI3 K Alpha; read-out: PI3K Alpha IC50) | EC50 (A2780 cells; [2]) | EC50 [1, 3] | IC50 (PI3 K Alpha) | EC50 (A2780 cells; A2780, read-out: A2780 Cell prolif. EC50) | EC50 ([1]; A2780, read-out: A2780 pAKT 473 EC50)
CC(=O)Nc1cn2cc(-c3cnc(N)c(OC4CCC4)n3)ccc2n1 [Example 64, N-(6-(5-amino-6-cyclobutoxy-pyrazin-2-yl)imidazo[1,2-a]pyridin-2-yl)acetamide] | < 1000 nM | < 1000 nM | < 1000 nM |  |  | 
